Data set [1] relates to Mycobacterium tuberculosis strain EH 4.0 (361.269). Briefly: Test 4: MIC determination, resazurin fluorescence, strain EH 4.0. The class given is cell-based. Conditions: for pIC50: Test 4, M. tuberculosis strain EH 4.0 (361.269); for IC50: Mycobacterium tuberculosis, read-out: pIC50, Test 4, M. tuberculosis strain EH 4.0 (361.269) (converted). From the text: TEST 4 (See Also Test 1 Above; in this Test a Different Strain of Mycobacterium tuberculosis Strain is Employed)
Appropriate solutions of experimental and reference compounds were made in 96 well plates with 7H9 medium. Samples of Mycobacterium tuberculosis strain EH 4.0 (361.269) were taken from cultures in stationary growth phase. These were first diluted to obtain an optical density of 0.3 at 600 nm wavelength and then diluted 1/100, resulting in an inoculum of approximately 5×10 exp5 colony forming units per well. Plates were incubated at 37° C. in plastic bags to prevent evaporation. After 7 days, resazurin was added to all wells.
A general note: Resazurin is reduced to fluorescent resorufin, in cell work by metabolically active cells.

Data set [2] deals with Mycobacterium tuberculosis strain H37Rv. Briefly: Test 1: MIC determination, resazurin fluorescence, M. tuberculosis H37Rv. The format is cell-based. As to conditions: for IC50: Mycobacterium tuberculosis, H37RV.
[3] abbreviates: Test 1, M. tuberculosis H37Rv, first test, read-out: pIC50 (converted).
Setting [4] is: Test 1, repeated (2nd) test, read-out: pIC50 * (converted).
Setting [5] is: Test 1, repeated (3rd) test, read-out: pIC50 ** (converted).
[6] abbreviates: Test 1, M. tuberculosis H37Rv, first test.

Like-named read-outs stand apart in the source and are kept apart here.

The melting point is the temperature of the solid-liquid transition. `CCc1nc2ncc(Cl)cn2c1C(=O)NCc1ccc(N2CC3(CC(OC(F)F)C3)C2)cc1` came in with a melting point of 163.21 °C.

What is called pIC50 is the negative decadic logarithm of the IC50, by convention in mol/L. In data set [1], `CCc1nc2ccc(Cl)cn2c1C(=O)NCC1CC12CCN(c1ccc(OC(F)(F)F)cc1)CC2` (centres unmarked) [Compound 1] returned a negative logarithm of the IC50 (pIC50) of 7.0. For the same compound, the IC50 in data set [2] (read-out: pIC50 (converted)) is 9.33 nM; in data set [2] (read-out: pIC50 * (converted)), 13.2 nM.

Turning to `CCc1nc2ccc(Cl)cn2c1C(=O)NCc1ccc(C2CC3(C2)CN(c2ccc(OC(F)(F)F)cc2)C3)cc1` [Compound 2], the IC50 in data set [1] is 50.1 nM; in data set [2] (setting [3]) it was 16.2 nM; in data set [2] (setting [4]) it was 14.8 nM; in data set [2] (setting [5]), 11.7 nM.

In the case of `CCc1nc2ncc(Cl)cn2c1C(=O)NCc1ccc(C2CC3(C2)CN(c2ccc(OC(F)(F)F)cc2)C3)cc1` [Compound 3], the IC50 in data set [1] was 5.01 nM; in data set [2] (setting [3]), 25.7 nM; in data set [2] (setting [4]), 26.3 nM; in data set [2] (setting [5]) it was 25.7 nM.

As to `CCc1nc2n(c1C(=O)NCc1ccc(N3CC4(C3)CN(c3ccc(OC(F)(F)F)cc3)C4)cc1)CCCC2` [Compound 6], the IC50 in data set [1] is 25.1 nM; in data set [2] (setting [3]), 141 nM; in data set [2] (setting [4]), 102 nM; in data set [2] (setting [5]), 129 nM.

As to `CCc1nc2ccc(Cl)cn2c1C(=O)NCc1ccc(N2CC3(CC(c4ccc(OC(F)(F)F)cc4)C3)C2)cc1` [Compound 7], the IC50 in data set [1] was 15.8 nM; in data set [2] (setting [3]), 100 nM; in data set [2] (setting [4]) it was 75.9 nM; in data set [2] (setting [5]) it was 79.4 nM.

In the case of `CCc1nc2ncc(Cl)cn2c1C(=O)NCc1ccc(N2CC3(CC(c4ccc(OC(F)(F)F)cc4)C3)C2)cc1` [Compound 8], the IC50 was 50.1 nM in data set [1], 148 nM in data set [2] (setting [3]), 186 nM in data set [2] (setting [4]) and 170 nM in data set [2] (setting [5]).

Consider `CCc1nc2ncc(Cl)cn2c1C(=O)NCc1ccc(N2CC3(CC(c4ccccc4)C3)C2)cc1` [Compound 9], for which the IC50 in data set [1] was 12.6 nM; in data set [2] (setting [3]), 83.2 nM; in data set [2] (setting [4]), 72.4 nM; in data set [2] (setting [5]) it was 53.7 nM.

In the case of `CCc1nc2ccc(Cl)cn2c1C(=O)NCc1ccc(N2CC3(CC(c4ccc(S(F)(F)(F)(F)F)cc4)C3)C2)cc1` [Compound 10], the IC50 is 31.6 nM in data set [1], 148 nM in data set [2] (setting [3]), 141 nM in data set [2] (setting [4]) and 107 nM in data set [2] (setting [5]).

As to `CCc1nc2ncc(Cl)cn2c1C(=O)NCc1ccc(N2CC3(CC(c4cccnc4)C3)C2)cc1` [Compound 11], the IC50 is 794 nM in data set [1], 1860 nM in data set [2] (setting [3]), 3020 nM in data set [2] (setting [4]) and 1200 nM in data set [2] (setting [5]).

In the case of `Cc1nc2sc(Br)cn2c1C(=O)NCc1ccc(N2CC3(CCC3)C2)cc1` [Compound 13], the IC50 is 31.6 nM in data set [1], 269 nM in data set [2] (setting [3]), 257 nM in data set [2] (setting [4]) and 263 nM in data set [2] (setting [5]).

For the compound `CCc1nc2ccc(Cl)cn2c1C(=O)NCC1CCC2(CCN(c3ccc(OC(F)(F)F)cc3)CC2)CO1` (centres unmarked) [Compound 14], the IC50 in data set [1] is 398 nM; in data set [2] (setting [3]) it was 2820 nM; in data set [2] (setting [4]), 2950 nM.

Take `CCc1nc2ccc(Cl)cn2c1C(=O)NCC1CC2(CCN(c3ccc(OC(F)(F)F)cc3)CC2)C1` [Compound 15]: the IC50 is 158 nM in data set [1], 102 nM in data set [2] (setting [3]) and 95.5 nM in data set [2] (setting [4]).

Turning to `CCc1nc2ccc(Cl)cn2c1C(=O)NCc1ccc(N2CC3(CC(F)C3)C2)cc1` [Compound 16], the figures for the pIC50 in data set [1] and in data set [2] (setting [6]) were 8.0 and 6.55, respectively. The “pIC50 *” value in data set [2] (Test 1, repeated (2nd) test) turned out to be 6.61.

Regarding `CCc1nc2ccc(Cl)cn2c1C(=O)NCc1ccc(N2CC3(CC(F)C3)C2)cc1` [Compound 17], the values for the negative logarithm of the IC50 (pIC50) in data set [1] and in data set [2] (setting [6]) were 7.4 and 7.82, respectively. Moreover, the IC50 in data set [2] (setting [4]) was 316 nM; in data set [2] (setting [5]), 468 nM.

For the compound `CCc1nc2sc(C)cn2c1C(=O)NCc1ccc(N2CC3(CC(F)C3)C2)cc1` [Compound 18], the IC50 was 31.6 nM in data set [1], 191 nM in data set [2] (setting [3]), 123 nM in data set [2] (setting [4]) and 126 nM in data set [2] (setting [5]).

Consider `CCc1nc2n(c1C(=O)NCc1ccc(N3CC4(CC(F)C4)C3)cc1)CCCC2` [Compound 19], for which the IC50 in data set [1] is 1260 nM; in data set [2] (setting [3]), 794 nM; in data set [2] (setting [4]), 1150 nM; in data set [2] (setting [5]), 1070 nM.

Compound `CCc1nc2sc(C)cn2c1C(=O)NCc1ccc(N2CC3(CC(O)C3)C2)cc1` [Compound 20] came in with a melting point of 300 °C. Moreover, the IC50 in data set [1] was 316 nM.

On to `CCc1nc2sc(C)cn2c1C(=O)NCc1ccc(N2CC3(CC(=O)C3)C2)cc1` [Compound 21], for which the IC50 is 100 nM in data set [1], 2450 nM in data set [2] (read-out: pIC50 (converted)), 1050 nM in data set [2] (read-out: pIC50 * (converted)) and 1380 nM in data set [2] (read-out: pIC50 ** (converted)).

On to `Cc1nc2sccn2c1C(=O)NCc1ccc(N2CC3(CC(c4ccc(OC(F)(F)F)cc4)C3)C2)cc1` [Compound 24], for which the IC50 was 251 nM in data set [1], 200 nM in data set [2] (read-out: pIC50 (converted)), 275 nM in data set [2] (read-out: pIC50 * (converted)) and 115 nM in data set [2] (read-out: pIC50 ** (converted)).

With `CCc1nc2sc(C)cn2c1C(=O)NCc1ccc(N2CC3(COC3)C2)cc1` [Compound 27], the IC50 in data set [1] is 398 nM; in data set [2] (setting [3]) it was 4070 nM; in data set [2] (setting [4]), 4170 nM; in data set [2] (setting [5]), 2880 nM.

For the compound `CCc1nc2ccc(Cl)cn2c1C(=O)NCc1ccc(N2CC3(CCN(c4ccc(OC(F)(F)F)cc4)CC3)C2)cc1` [Compound 28], the IC50 in data set [1] was 3.16 nM; in data set [2] (setting [3]), 6030 nM; in data set [2] (setting [4]), 7590 nM; in data set [2] (setting [5]), 7410 nM.

In the case of `CCc1nc2ccc(Cl)cn2c1C(=O)NC1CCC2(CC1)CCN(c1ccc(OC(F)(F)F)cc1)CC2` [Compound 29], the IC50 was 7940 nM in data set [1], 7940 nM in data set [2] (setting [3]), 6760 nM in data set [2] (setting [4]) and 7080 nM in data set [2] (setting [5]).

On to `Cc1nc2sccn2c1C(=O)NCc1ccc(N2CC3(COC3)C2)cc1` [Compound 30], for which the IC50 is 7940 nM in data set [1], 8910 nM in data set [2] (setting [3]), > 12600 nM in data set [2] (setting [4]) and 11000 nM in data set [2] (setting [5]).

Regarding `CCc1c(C(=O)NCc2ccc(N3CC4(CC(F)C4)C3)cc2)c2ccncc2n1C` [Compound 31], the IC50 in data set [1], in data set [2] (setting [3]), in data set [2] (setting [4]) and in data set [2] (setting [5]) was > 12600 nM in each case.

Consider `CCc1nn2c(C)ccnc2c1C(=O)NCc1ccc(N2CC3(CC(c4ccc(OC(F)(F)F)cc4)C3)C2)cc1` [Compound 98], for which the IC50 in data set [1] is > 12600 nM.

Take `CCc1nc2cn(C)ccc-2c1C(=O)NCC1CC12CCN(c1ccc(OC(F)(F)F)cc1)CC2` (centres unmarked) [Compound 99]: the IC50 in data set [1] was > 12600 nM.

Regarding `O=C(NCC1CC2(CCN(c3ccc(OC(F)(F)F)cc3)CC2)C1)c1cc2n(c1)CCCC2` [Compound 100], the IC50 in data set [1] was > 12600 nM.

As for `CCc1nc2cnc(Cl)cn2c1C(=O)NCC1CC2(CCN(c3ccc(OC(F)(F)F)cc3)CC2)C1` [Compound 101], the IC50 in data set [1] was 1580 nM.

Take `CCc1nn2ccc(C)nc2c1C(=O)NCc1ccc(C2CC3(C2)CN(c2ccc(OC(F)(F)F)cc2)C3)cc1` [Compound 102]: the IC50 in data set [1] is 3980 nM.

For the compound `CCc1nn2c(C)ccnc2c1C(=O)NCc1ccc(C2CC3(C2)CN(c2ccc(OC(F)(F)F)cc2)C3)cc1` [Compound 103], the IC50 in data set [1] was 7940 nM.

In the case of `CCc1nc2ccn(C)cc-2c1C(=O)NCc1ccc(N2CC3(CC(c4ccc(OC(F)(F)F)cc4)C3)C2)cc1` [Compound 104], the IC50 in data set [1] is > 12600 nM.

In the case of `CCc1nn2c(C)ccnc2c1C(=O)NCC1CC2(CCN(c3ccc(OC(F)(F)F)cc3)CC2)C1` [Compound 105], in data set [1], the IC50 was > 12600 nM.

Consider `CCc1nn2ccc(C)nc2c1C(=O)NCC1CC12CCN(c1ccc(OC(F)(F)F)cc1)CC2` (centres unmarked) [Compound 106], for which the IC50 in data set [1] is > 12600 nM.

`CCc1nn2ccc(C)nc2c1C(=O)NCC1CC2(CCN(c3ccc(OC(F)(F)F)cc3)CC2)C1` [Compound 107]: the IC50 in data set [1] was > 12600 nM.

As for `CCc1nn2c(C)ccnc2c1C(=O)NCC1CC12CCN(c1ccc(OC(F)(F)F)cc1)CC2` (centres unmarked) [Compound 108], in data set [1], the IC50 was > 12600 nM.

Take `CCc1nc2ccn(C)cc-2c1C(=O)NCC1CC2(CCN(c3ccc(OC(F)(F)F)cc3)CC2)C1` [Compound 109]: in data set [1], the IC50 is > 12600 nM.

As to `CCc1[nH]c2ncc(Cl)cc2c1C(=O)NCC1CC12CCN(c1ccc(OC(F)(F)F)cc1)CC2` (centres unmarked) [Compound 110], the IC50 in data set [1] is > 12600 nM.

With `CCc1c(C(=O)NCC2CC3(CCN(c4ccc(OC(F)(F)F)cc4)CC3)C2)c2cnccc2n1C` [Compound 111], the IC50 in data set [1] was > 12600 nM.

For the compound `CCc1nc2ccn(C)cc-2c1C(=O)NCc1ccc(C2CC3(C2)CN(c2ccc(OC(F)(F)F)cc2)C3)cc1` [Compound 112], the IC50 in data set [1] is 3160 nM.

Take `CCc1[nH]c2ncc(Cl)cc2c1C(=O)NCC1CC2(CCN(c3ccc(OC(F)(F)F)cc3)CC2)C1` [Compound 113]: the IC50 in data set [1] was > 12600 nM.

Regarding `CCc1c(C(=O)NCc2ccc(C3CC4(C3)CN(c3ccc(OC(F)(F)F)cc3)C4)cc2)c2cc(Cl)ccc2n1C` [Compound 114], in data set [1], the IC50 was 12600 nM.

With `O=C(NCc1ccc(C2CC3(C2)CN(c2ccc(OC(F)(F)F)cc2)C3)cc1)c1cc2c([nH]1)CCCC2` [Compound 115], the IC50 in data set [1] is 3160 nM.

On to `CCc1nc2ccc(Cl)cn2c1C(=O)NCc1ccc(C2CC3(C2)CN(C=O)C3)cc1` [Compound 116], for which, in data set [1], the IC50 was 316 nM.

Source of the values: patent publication US20190330189A1, “ANTIBACTERIAL COMPOUNDS” (Janssen Sciences Ireland UC, priority 2015, published 2019).
